Measured values published in patent US20260191825A1, “CONTRACEPTIVE COMPOUNDS AND DOSING FOR THE SAME” (YourChoice Therapeutics, Inc., priority 2024, published 2026).
Where “and” joins values, the source holds several entries; their conditions need not be identical. Equal values may be shown once. Entries after “also recorded” stand apart in the source; their conditions may differ. Read-outs that look alike come from different tables or passages of the source.

Assays:
[1] = test system: central nervous system (CNS); experiment: Rat FOB / CNS safety pharmacology study; assay type: in vivo; conditions: male Sprague Dawley rats, single oral doses of 3, 10 or 30 mg/kg
rat micronucleus = experiment: In vivo rat micronucleus study; conditions: highest doses tested
mammalian cell = experiment: Chromosomal aberration assay (in vitro mammalian cell assay); assay type: cell-based; conditions: highest doses tested
[2] = test system: bacterial reverse mutation (Ames); experiment: In vitro bacterial reverse mutation (Ames) test; assay type: cell-based; conditions: in vitro bacterial assay, highest doses tested
[3] = NHP exploratory 14-day non-GLP repeat-dose study; assay type: in vivo, cynomolgus monkey; conditions: male, cynomolgus monkey, in vivo; for NOAEL at 14 days: NHP
Experimental: (§1) An exploratory 14-day non-GLP study was conducted in male NHPs (cynomolgus monkeys) for assessment of efficacy and toxicity parameters prior to the conduct of the 28-day GLP toxicity studies in rats and dogs.

[4] = test system: male NHPs (cynomolgus monkeys); experiment: NHP exploratory 14-day non-GLP repeat-dose study; assay type: in vivo, cynomolgus monkey
Experimental: as §1

[5] = NHP non-GLP 14-day repeat-dose study, PK at the NOAEL; conditions: male, cynomolgus monkey, in vivo, 10 mg/kg, 10 mg/kg (NOAEL); for AUC(0-t): read-out: AUC0-24
rats = experiment: Mating trials with rats; assay type: in vivo, rat; conditions: control 88%
male mice = experiment: Mouse single dose non-GLP study; assay type: in vivo
male dogs = experiment: Dog single dose non-GLP study; assay type: in vivo
[6] = In vitro stability in microsomes (rat); assay type: in vitro ADME; conditions: rats
Experimental: (§2) Respective half-lives (T1/2) were 9.5 hours (human), 23.1 hours (monkeys), >23.1 hours (mice), >23.1 hours (rats), 19.6 hours (rabbits), and >23.1 hours (dogs).

[7] = In vitro stability in microsomes (rabbit); assay type: in vitro ADME; conditions: rabbits
Experimental: as §2

[8] = Metabolite identification in pooled hepatocytes (all species); assay type: in vitro ADME, human, monkey, mouse, rat, rabbit, dog
Description: Overall, each metabolite was present at less than 10% of the recoverable metabolic profile across all species. The rat produced 6 of the 8 quantified human metabolites and the dog produced 4 of the 8 human metabolites. […] Because the presence of these metabolites was ≤10% of the recoverable metabolic profile, and because all other human metabolites were represented in either the rat or dog, these 2 species were considered relevant species to assess toxicity.

plasma proteins = experiment: In vitro plasma protein binding; assay type: in vitro ADME; conditions: 1 μM, all species tested (human, monkey, mouse, rat, dog)
CYP2B6 = CYP2B6 (Homo sapiens, UniProt P20813); experiment: In vitro CYP inhibition (direct and time-dependent), CYP2B6; assay type: in vitro ADME
Description: (§3) However, the likelihood of drug interactions is low since healthy participants who meet eligibility criteria will be enrolled in this Phase 1b/2a clinical trial. An allowance for select concomitant medications may be considered for select participants at the discretion of the investigator and/or sponsor if drug profiles are not anticipated to interact with Compound A. Such medications may include, but will not be limited to paracetamol or ibuprofen as assessed by both the PI and the Sponsor. […] Additional precautions to avoid grapefruit, pomegranates, star fruit, or Seville oranges for 7 days prior to admission, and juices and products containing these fruits for the duration of the study will be taken.

CYP3A4/5 = experiment: In vitro CYP inhibition (direct and time-dependent), CYP3A4/5; assay type: in vitro ADME; conditions: human
Description: as §3

[9] = In vitro molar extinction coefficient assay; assay type: physicochemical; conditions: UV light
Description: As a result, participants will be advised to minimize exposure to sunlight, wear sunglasses and clothing that minimizes exposure to sunlight, and use sun cream on exposed areas when going outdoors during the 28-Day dosing period and until 10 days post last dose.

healthy men = experiment: Phase 1b MAD study (Part 1), 28-day dosing, safety and tolerability; assay type: in vivo, human
Experimental: Cohort 4 (receiving 180 mg) is currently being studied.

[10] = test system: mice, rats, dogs and NHPs; experiment: Research in nonclinical models (mice, rats, dogs and NHPs); assay type: in vivo, mouse, rat, dog, NHP
[11] = Dog single dose cardiovascular study; conditions: male, Beagle, dog, in vivo
male Beagle dogs = experiment: Dog single dose cardiovascular study; conditions: male Beagle dogs, single dose 2.5, 5 or 25 mg/kg
male Sprague Dawley rats = experiment: Rat 28-day repeat-dose GLP toxicity study; parameters: NOAEL increase over the minimum efficacious dose in rats: dose or concentration left out as unconfirmed
[12] = 15, 30 or 90 mg once daily for 28 days
[13] = rat, 3, 10 or 30 mg/kg/day for 28 days

Chain of CYP2B6 (P20813 whole entry): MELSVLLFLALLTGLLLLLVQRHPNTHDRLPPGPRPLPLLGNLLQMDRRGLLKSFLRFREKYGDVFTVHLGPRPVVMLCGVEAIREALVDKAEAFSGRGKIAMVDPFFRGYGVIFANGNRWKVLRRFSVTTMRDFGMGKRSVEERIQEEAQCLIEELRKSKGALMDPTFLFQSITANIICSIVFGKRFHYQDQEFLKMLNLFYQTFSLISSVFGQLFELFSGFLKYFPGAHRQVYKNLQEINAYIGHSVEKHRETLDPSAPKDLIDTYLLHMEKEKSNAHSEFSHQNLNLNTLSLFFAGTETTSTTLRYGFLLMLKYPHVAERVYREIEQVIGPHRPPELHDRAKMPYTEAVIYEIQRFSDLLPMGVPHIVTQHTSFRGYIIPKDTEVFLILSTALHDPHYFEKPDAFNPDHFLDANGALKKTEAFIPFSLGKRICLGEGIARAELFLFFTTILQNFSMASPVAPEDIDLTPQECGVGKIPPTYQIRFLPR

Cc1ccc(C2=CC(C)(C)Oc3ccc(-c4ccc(-c5ccc(C(=O)O)cc5)[nH]4)cc32)cc1 [Compound A]
Main outcomes: rat FOB (adverse effects on CNS) [1]: no adverse effects; also recorded: Clean
Genotoxicity: rat micronucleus (rat micronucleus): not genotoxic; also recorded: no genotoxic potential; also recorded: Clean
Genotoxicity: chromosomal aberration (mammalian cell): not genotoxic; also recorded: no genotoxic potential; also recorded: Clean
Genotoxicity: Ames [2]: not genotoxic; also recorded: no genotoxic potential; also recorded: Clean
Human equivalent dose of NOAEL at 14 days ([3]; NHP 14-day non-GLP, NOAEL 10 mg/kg/day, read-out: HED of NOAEL): 3.2 mg/kg/day
NOAEL at 14 days ([3]; 14-day repeat dose non-GLP, 5-20 mg/kg/day): 10 mg/kg/day
NOAEL at 14 days ([3]; 14-day repeat-dose): 10 mg/kg
NOAEL increase over the minimum efficacious dose in rats ([4]; NHP NOAEL 10 mg/kg/day): 22 fold
Signs of toxicity ([4]; cynomolgus monkey, in vivo): No signs of toxicity
HED (based on BSA) ([4]; of NHP 14-day repeat-dose NOAEL): 3.23 mg/kg and 3.2 mg/kg
HED for 60 kg BW ([4]; of NHP repeat-dose NOAEL): 192 mg
HED for 80 kg BW ([4]; of NHP repeat-dose NOAEL): 256 mg
half-life ([5]; Day 1, mean ± SD): 7.9 ± 1.7 h
AUC(0-t) ([5]; Day 1, mean): 147 µg·h/mL
Cmax ([5]; Day 1, n = 3, mean): 13000 ng/mL
Cmax ([5]; Day 14, mean): 6530 ng/mL
half-life ([5]; Day 14, mean ± SD): 6.2 ± 0.4 h
AUC(0-t) ([5]; Day 14, mean): 69.7 µg·h/mL
Fertility (rats; 3 mg/kg/day dose group): 13%
Fertility (rats; 10 mg/kg/day dose group): 6%
Fertility (rats; 30 mg/kg/day dose group): 0%
Tolerated single dose (highest dose tested) (male mice; male mice, non-GLP study): 1,000 mg/kg
HED of tolerated single dose (male mice; mice, 1,000 mg/kg): 81.3 mg/kg
HED of tolerated single dose (male dogs; dogs, 500 mg/kg): 277.8 mg/kg
Tolerated single dose (highest dose tested) (male dogs; male dogs, non-GLP study): 500 mg/kg
half-life ([6]; rat, read-out: Half-life (T1/2) in microsomes): > 23.1 h
Compound remaining intact ([6]; 90 minutes): 113%
half-life ([7]; rabbit, read-out: Half-life (T1/2) in microsomes (converted)): 19.6 h
Compound remaining intact ([7]; 90 minutes): 99%
Metabolites yielded by biotransformation ([8]; 10 μM, pooled hepatocytes): 10 metabolites
Human metabolites produced (of the 8) ([8]; dog hepatocytes): 4
Quantified human metabolites produced (of the 8) ([8]; rat hepatocytes): 6
Binding to plasma proteins (plasma proteins): at least 99.99%
IC50 (CYP2B6; CYP2B6): 6.1 µM
Time-dependent inhibition (TDI) (CYP2B6; CYP2B6, 0.3 to 100 μM): no TDI potential
IC50 (CYP3A4/5; CYP3A4/5, midazolam as substrate): 58.6 µM
IC50 (CYP3A4/5; CYP3A4/5, testosterone as substrate): 53.6 µM
Phototoxicity potential [9]: potential to cause phototoxicity
AEs classified as possibly related to study treatment (healthy men; [12]): moderate ventricular triplet, mild skin rash, mild sunburn, mild increased urinary frequency and mild photosensitivity
AEs classified as possibly related to study treatment (number) (healthy men; [12]): Five
Serious adverse events (SAEs) (healthy men; 15, 30 or 90 mg once daily for 28 days, fasting, to date): no serious adverse events
Safety and tolerability (healthy men; 28-day oral administration, up to 90 mg, fasted state): safe and well tolerated
Testosterone levels ([10]; mice, rats, dogs and NHPs): does not alter testosterone levels
Virility ([10]; mice, rats, dogs and NHPs): does not affect virility
Repeat dosing after which impairment of fertility / reduction of sperm counts was shown ([10]; nonclinical models): 3-4 weeks
NOAEL [11]: 25 mg/kg
Main outcomes: dog cardiovascular (effects) (male Beagle dogs): no effects; also recorded: Clean
NOAEL increase over the minimum efficacious dose in rats (male Sprague Dawley rats; rat NOAEL […] mg/kg/day, based on exposure): 40 fold
Prostate weight (male Sprague Dawley rats; [13]): unchanged
Recovery from testicular effects (male Sprague Dawley rats; [13]): very slow
Testosterone levels (male Sprague Dawley rats; rat, 3, 10 or 30 mg/kg/day for 28 days, inferred from prostate weight): did not change testosterone levels
